In patent US20100160432A1, “Curative drug for neurodegenerative diseases” (priority 2007, published 2010):
Like-named read-outs stand apart in the source and are kept apart here.

Tests used:
[1] = test system: NO production; conditions: compared with vitamin E; cited from earlier work
[2] = compared with vitamin E, cited from earlier work
[3] = test system: SH-SY5Y cells; experiment: Cytoprotection against linoleic acid hydroperoxide (LA-OOH) cell disorder, SH-SY5Y cells, methylene blue dye uptake; type: cell-based, human; conditions: for Protection Rate (%) / Survival Rate (%): SH-SY5Y cells, LA-OOH 70 μM, about 20 h
Description: (§1) Of the hydroquinone derivatives expressed in the aforesaid Formula 1, 2,3,5-trimethyl-hydroquinone-1-hexylether (Compound 1) was examined in comparison with vitamin E with respect to the activity of inhibiting toxicity of lipid peroxide to nerve cells. PC12 cells as a cell culture model of for human neuroblastoma-derived SH-SY5Y and rat pheochromocytoma cells were cultivated by the law of the art. A culture media was prepared in effect by adding FCS (fetal calf serum) to Dulbecco's Eagle medium (DMEM) and used further with the addition of NaHCO3 (3.7 g/L), penicillin G (100 U/mL) and Streptomycin ([…]). A cultivation was performed by seeding 6×10^4 SH-SY5Y cells and 4×10^4 PC12 cells in a CO2 incubator at 37° C. using a microplate with 24 macroscopic pores. After 48 hours, the aforesaid Compound 1 or vitamin E was added thereto. Then after about 30 minutes, 70 μM of linoleic acid hydroperoxide were added thereto for the SH-SY5Y cells and 35 μM of the same were added for PC12 cells. After cultivation for about 20 hours, the number of surviving cells was measured.
(§2) The measurement of the surviving cells was made by a Methylene blue dye uptake method. To be more specific, the cells were rinsed twice with PBS (phosphate buffered saline free from Mg and Ca), and then, fixated with 10% formalin for 5 minutes. Further, the cells were rinsed three times with distilled water, stained with 0.05% methylene blue solution for 60 minutes, and rinsed three times with distilled water. Then, 20 minutes after adding 0.33N HCl thereto, the absorbance of the cells was measured at 665 nm. The survival rate and protection rate of the cells were calculated on the basis of the measured result by the following equation.
(§3) Cell survival rate (%)=[absorbance of treated cells with testing additives]/[absorbance of non-treated cells]×100
(§4) Protection rate (%)={1−(100−[survival rate of treated cells with testing additives])/(100−[survival rate of cells with no additives])}×100

[4] = test system: PC12 cells; experiment: Cytoprotection against linoleic acid hydroperoxide (LA-OOH) cell disorder, PC12 cells, methylene blue dye uptake; type: cell-based, rat; conditions: for Protection Rate (%) / Survival Rate (%): LA-OOH 35 μM, about 20 h; for protection rate of PC12 cells (up to) / survival rate of PC12 cells (up to): highest value over the doses tested
Description: as §1, §2, §3, §4

| Compound | Protection Rate (%) ([3]; dosage 0.5 μM) | Survival Rate (%) ([3]; dosage 0.5 μM) | Protection Rate (%) ([3]; dosage 1.0 μM) | Survival Rate (%) ([3]; dosage 1.0 μM) | Protection Rate (%) ([3]; dosage 5.0 μM) | Survival Rate (%) ([3]; dosage 5.0 μM) | Protection Rate (%) ([3]; dosage 10.0 μM) | Survival Rate (%) ([3]; dosage 10.0 μM) | Protection Rate (%) ([4]; dosage 0.1 μM) | Survival Rate (%) ([4]; dosage 0.1 μM) | Protection Rate (%) ([4]; dosage 0.5 μM) | Survival Rate (%) ([4]; dosage 0.5 μM) | Protection Rate (%) ([4]; dosage 1.0 μM) | Survival Rate (%) ([4]; dosage 1.0 μM) | Protection Rate (%) ([4]; dosage 5.0 μM) | Survival Rate (%) ([4]; dosage 5.0 μM) | protection rate of PC12 cells (up to) [4] | survival rate of PC12 cells (up to) [4] | other results |
| --- | --- | --- | --- | --- | --- | --- | --- | --- | --- | --- | --- | --- | --- | --- | --- | --- | --- | --- | --- |
| CCCCCCOc1cc(C)c(O)c(C)c1C [Compound 1, 2,3,5-trimethyl-hydroquinone-1-hexylether] | 14.8 | 83.41 | 22.1 | 84.83 | 38.3 | 87.97 | 33.5 | 87.04 | 21.5 | 45.68 | 80.6 | 86.57 | 88.4 | 91.96 | 88.9 | 92.31 | around 90% | around 90% | NO-production inhibitory activity relative to vitamin E [1]: 500 times as strong as vitamin E; antioxidative properties relative to vitamin E [2]: double that of vitamin E; antioxidative properties relative to vitamin E ([2]; listed as 2,3,5-trimethyl-hydroquinone-1-hexylether): twice as strong as vitamin E; toxicity in comparison with vitamin E ([3]; SH-SY5Y cells and PC12 cells, from Table 1 and Table 2): lower toxicity |
| Vitamin E [reference compound] | 14.5 | 83.72 | −6.3 | 79.77 | −6.2 | 79.78 | 4.3 | 81.78 | 6.8 | 37.16 | 4.9 | 35.88 | 4.8 | 35.85 | 14.8 | 42.57 | around 15% | about 42% | – |
